Source: patent US11760761B2, “Methods and compositions for targeting PD-L1” (Aligos Therapeutics, Inc., priority 2020, dated 2023)

Tests used:
PD-1/PD-L1 interaction = PD-1/PD-L1 interaction (Homo sapiens (Human), UniProt Q9NZQ7); assay: PD-1/PD-L1 NFAT Reporter Assay (Jurkat T cells / PD-L1 expressing CHO cells co-culture); assay type: cell-based; conditions: for Emax: Jurkat, maximum NFAT-activation level relative to the positive control (10 nM Atezolizumab); for EC50: co-culture 6 hrs at 37° C., luciferase
Procedure: Blocking the PD-1/PD-L1 interaction will release the inhibitory signal and results in TCR signaling and NFAT-mediated luciferase activity.
CHO cells expressing surface-bound anti-CD3 antibodies and PD-L1 were first seeded overnight and treated with the compounds. Jurkat cells overexpressing PD-1 and a luciferase construct under NF-AT promoter were then immediately seeded on the monolayer of CHO cells. The co-culture was then incubated for 6 hrs at 37° C. Luciferase activity was assessed by adding the ONE-Glo reagent and measuring luminescence with a plate reader. EC50s values were determined from the fit of the dose-response curves Emax (%) corresponds to the maximum NFAT-activation level reached by a given compound relative to the positive control (10 nM Atezolizumab).

PDL1/PD1 = PDL1/PD1 (Homo sapiens (Human), UniProt Q9NZQ7); assay: PDL1/PD1 Binding Assay; conditions: PDL1-6xHis 0.3 nM, PD1-Fc-Avi-Biotin 2.5 nM, Acceptor/Donor beads; read-out: PD-1/PD-L1 PPI IC50
Procedure: Compounds to be tested were serially diluted in DMSO, and further diluted in assay buffer (25 mM Hepes pH 7.4, 150 mM NaCl, 0.005% Tween 20, BSA 0.01%). Diluted compounds were added to the wells with final concentration of DMSO at 1%. PDL1-6×His protein was added to the wells, mixed well with compound. The plates were incubated for 30 min at room temperature. PD1-Fc-Avi-Biotin protein was added to the wells. Final concentration of PDL1 and PD1 protein is 0.3 nM and 2.5 nM, respectively. After a binding time of 30 min at room temperature, Anti-6×His Acceptor beads (final concentration 20 ug/ml) were added to the wells, and the incubation continued for 1 h. Streptavidin Donor beads (final concentration 20 ug/mL) were added at reduced light. The plates were sealed with foil and incubated in the dark for additional 1 h or overnight before reading on an Envision reader. The IC50 values were determined by fitting the curves using a four-parameter equation in Graphpad Prism 8.

PD-1/PD-L1 interaction, sequence (Q9NZQ7 19-290): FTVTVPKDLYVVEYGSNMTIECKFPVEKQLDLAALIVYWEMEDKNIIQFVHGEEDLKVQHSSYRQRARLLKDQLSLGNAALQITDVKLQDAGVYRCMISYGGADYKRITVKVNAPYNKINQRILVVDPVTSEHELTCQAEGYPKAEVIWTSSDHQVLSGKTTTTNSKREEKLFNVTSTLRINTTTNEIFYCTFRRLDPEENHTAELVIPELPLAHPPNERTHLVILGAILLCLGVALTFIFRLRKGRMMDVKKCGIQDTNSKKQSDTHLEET
PDL1/PD1, sequence (Q9NZQ7 19-238): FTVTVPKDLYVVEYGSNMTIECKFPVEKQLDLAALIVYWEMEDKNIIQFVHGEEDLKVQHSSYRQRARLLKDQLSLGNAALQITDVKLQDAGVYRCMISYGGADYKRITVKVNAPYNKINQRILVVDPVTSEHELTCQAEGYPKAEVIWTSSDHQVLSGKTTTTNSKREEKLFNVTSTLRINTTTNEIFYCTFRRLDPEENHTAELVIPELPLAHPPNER

Emax (PD-1/PD-L1 interaction) | EC50 (PD-1/PD-L1 interaction) | IC50 (PDL1/PD1) | Compound
– | ≤ 10 nM | ≤ 10 nM | COc1nc(-c2cccc(-c3cccc(-c4cc5c(c(OC)n4)[C@@H](N4CC6(CCC(=O)N6)C4)CC5)c3Cl)c2Cl)cnc1CN1CC2(C1)CN(C(C)=O)C2 (single isomer, unassigned) [Compound D-14]
– | 10 to 100 nM | ≤ 10 nM | COc1nc(-c2cccc(-c3cccc(-c4cc5c(c(OC)n4)[C@@H](N4CC6(CCC(=O)N6)C4)CC5)c3Cl)c2Cl)cnc1CNC[C@@H]1CCC(=O)N1 (single isomer, unassigned) [Compound D-15]
– | – | ≤ 10 nM | COc1nc(-c2cccc(-c3cccc(-c4cc5c(c(OC)n4)[C@@H](N4CC6(CN(C(C)=O)C6)C4)CC5)c3Cl)c2Cl)cnc1CNC[C@@H]1CCC(=O)N1 (single isomer, unassigned) [Compound D-16]
– | – | ≤ 10 nM | COc1nc(-c2cccc(-c3cccc(-c4cc5c(c(OC)n4)[C@H](NC[C@@H]4CCC(=O)N4)CO5)c3Cl)c2Cl)cc(C)c1CN1CC2(C1)CN(C(C)=O)C2 (single isomer, unassigned) [Compound E-5]
– | – | ≤ 10 nM | CCOC(=O)C1CN([C@@H]2CCc3cc(-c4cccc(-c5cccc(-c6cnc(CN7CC(O)C7)c(OC)n6)c5Cl)c4Cl)nc(OC)c32)C1 (single isomer, unassigned) [Compound G-2]
– | > 10000 nM | – | CCOC(=O)C1CN([C@H]2CCc3cc(-c4cccc(-c5cccc(-c6cnc(CN7C[C@@H](O)[C@@H]7C)c(OC)n6)c5Cl)c4Cl)nc(OC)c32)C1 (single isomer, unassigned) [Compound G-3]
– | 1000 to 10000 nM | – | CCOC(=O)C1CN([C@@H]2CCc3cc(-c4cccc(-c5cccc(-c6cnc(CN7C[C@@H](O)[C@@H]7C)c(OC)n6)c5Cl)c4Cl)nc(OC)c32)C1 (single isomer, unassigned) [Compound G-4]
– | ≤ 10 nM | – | COc1nc(-c2cccc(-c3cccc(-c4cc5c(c(OC)n4)[C@@H](NC[C@@H]4CCC(=O)N4)CC5)c3Cl)c2Cl)cnc1CN1CC2(C1)CN(C(C)=O)C2 [Compound D-1]
– | – | ≤ 10 nM | COc1nc(-c2cccc(-c3cccc(-c4cc5c(c(OC)n4)[C@H](NC[C@@H]4CCC(=O)N4)CC5)c3Cl)c2Cl)cnc1CN1CCCC1 [Compound D-12]
– | ≤ 10 nM | – | COc1nc(-c2cccc(-c3cccc(-c4cc5c(c(OC)n4)[C@@H](NC[C@@H]4CCC(=O)N4)CC5)c3Cl)c2Cl)ccc1CNC[C@@H]1CCC(=O)N1 [Compound E-1]
– | ≤ 10 nM | – | COc1nc(-c2cccc(-c3cccc(-c4cc5c(c(OC)n4)[C@@H](NC[C@@H]4CCC(=O)N4)CC5)c3Cl)c2Cl)cc(C)c1CN1CC2(C1)CN(C(C)=O)C2 [Compound E-2]
– | 10 to 100 nM | – | COc1nc(-c2cccc(-c3cccc(-c4cc5c(c(OC)n4)C(N4CCC[C@@H](C(=O)O)C4)CC5)c3Cl)c2Cl)cnc1CN1CC(O)C1 (stereo partly shown) [Compound F-1]
– | 10 to 100 nM | – | CCOC(=O)C1CN([C@H]2CCc3cc(-c4cccc(-c5cccc(-c6cnc(CN7CC(O)C7)c(OC)n6)c5Cl)c4Cl)nc(OC)c32)C1 [Compound G-1]
– | 10 to 100 nM | – | COc1nc(-c2cccc(-c3cccc(-c4cc5c(c(OC)n4)[C@@H](N4CC(C(=O)O)C4)CC5)c3Cl)c2Cl)cnc1CN1CC(O)C1 [Compound H-1]
– | 100 to 1000 nM | – | CCOC(=O)CN1CCc2c(cc(-c3cccc(-c4cccc(-c5cnc(CN6CC(O)C6)c(OC)n5)c4Cl)c3Cl)nc2OC)C1 [Compound I-1]
– | 1000 to 10000 nM | – | CCOC(=O)CN1CCc2c(cc(-c3cccc(-c4cccc(-c5cnc(CN6CC(O)(C(F)(F)F)C6)c(OC)n5)c4Cl)c3Cl)nc2OC)C1 [Compound I-3]
– | 10 to 100 nM | – | COc1nc(-c2cccc(-c3cccc(-c4cc5c(c(OC)n4)CCN(CC(=O)O)C5)c3Cl)c2Cl)cnc1CN1CC(O)C1 [Compound J-1]
– | 10 to 100 nM | – | COc1nc(-c2cccc(-c3cccc(-c4cc5c(c(OC)n4)CCN(C[C@@H]4CCC(=O)N4)C5)c3Cl)c2Cl)cnc1CN1CC2(CCC(=O)N2)C1 [Compound K-1]
– | 10 to 100 nM | – | COCCN1CCc2c(cc(-c3cccc(-c4cccc(-c5cnc(CN6CC7(CCC(=O)N7)C6)c(OC)n5)c4Cl)c3Cl)nc2OC)C1 [Compound K-2]

Continued, compound first:

Compound | Emax (PD-1/PD-L1 interaction) | EC50 (PD-1/PD-L1 interaction) | IC50 (PDL1/PD1)
CCOC(=O)CN[C@@H]1CCc2cc(-c3cccc(-c4cccc(-c5cnc(CN6CC7(CCC(=O)N7)C6)c(OC)n5)c4Cl)c3Cl)cc(OC)c21 (single isomer, unassigned) [Compound A-2] | 85% | 100 to 1000 nM | ≤ 10 nM
CCOC(=O)C1CN([C@H]2CCc3cc(-c4cccc(-c5cccc(-c6cnc(CN7CC8(CCC(=O)N8)C7)c(OC)n6)c5Cl)c4Cl)cc(OC)c32)C1 (single isomer, unassigned) [Compound A-3] | 84% | 100 to 1000 nM | ≤ 10 nM
CCOC(=O)C1CN([C@@H]2CCc3cc(-c4cccc(-c5cccc(-c6cnc(CN7CC8(CCC(=O)N8)C7)c(OC)n6)c5Cl)c4Cl)cc(OC)c32)C1 (single isomer, unassigned) [Compound A-4] | 18% | – | ≤ 10 nM
COc1cc(-c2cccc(-c3cccc(-c4cnc(CN5CC6(CCC(=O)N6)C5)c(OC)n4)c3Cl)c2Cl)cc2c1[C@@H](N1CC(O)C1)CC2 (single isomer, unassigned) [Compound A-5] | 102% | 100 to 1000 nM | ≤ 10 nM
COc1cc(-c2cccc(-c3cccc(-c4cnc(CN5CC6(CCC(=O)N6)C5)c(OC)n4)c3Cl)c2Cl)cc2c1[C@H](N1CC(O)C1)CC2 (single isomer, unassigned) [Compound A-6] | 32% | – | ≤ 10 nM
COc1cc(-c2cccc(-c3cccc(-c4cnc(CN5CC6(CCC(=O)N6)C5)c(OC)n4)c3Cl)c2Cl)cc2c1[C@@H](N1CC3(CCC(=O)N3)C1)CC2 (single isomer, unassigned) [Compound A-7] | 24% | – | ≤ 10 nM
COc1cc(-c2cccc(-c3cccc(-c4cnc(CN5CC6(CCC(=O)N6)C5)c(OC)n4)c3Cl)c2Cl)cc2c1C[C@@H](N1CC(O)C1)C2 (single isomer, unassigned) [Compound A-10] | 172% | 10 to 100 nM | ≤ 10 nM
COc1cc(-c2cccc(-c3cccc(-c4cnc(CN5CC6(CCC(=O)N6)C5)c(OC)n4)c3Cl)c2Cl)cc2c1C[C@H](N1CC(O)C1)C2 (single isomer, unassigned) [Compound A-11] | 84% | 1000 to 10000 nM | ≤ 10 nM
COc1cc(-c2cccc(-c3cccc(-c4cnc(CN5CC6(CCC(=O)N6)C5)c(OC)n4)c3Cl)c2Cl)cc2c1C[C@@H](N1CC3(CCC(=O)N3)C1)C2 (single isomer, unassigned) [Compound A-12] | 191% | 10 to 100 nM | ≤ 10 nM
COc1cc(-c2cccc(-c3cccc(-c4cnc(CN5CC6(CCC(=O)N6)C5)c(OC)n4)c3Cl)c2Cl)cc2c1C[C@H](N1CC3(CCC(=O)N3)C1)C2 (single isomer, unassigned) [Compound A-13] | 58% | 1000 to 10000 nM | ≤ 10 nM
COc1cc(-c2cccc(-c3cccc(-c4cnc(CN5CC6(CCC(=O)N6)C5)c(OC)n4)c3Cl)c2Cl)cc2c1[C@@H](N1CC(C(=O)O)C1)CC2 (single isomer, unassigned) [Compound B-3] | 112% | 100 to 1000 nM | ≤ 10 nM
COc1cc(-c2cccc(-c3cccc(-c4cnc(CN5CC6(CCC(=O)N6)C5)c(OC)n4)c3Cl)c2Cl)cc2c1[C@H](N1CC(C(=O)O)C1)CC2 (single isomer, unassigned) [Compound B-4] | 65% | 1000 to 10000 nM | ≤ 10 nM
COc1nc(-c2cccc(-c3cccc(-c4cc5c(c(OC)n4)[C@@H](N4CC6(CCC(=O)N6)C4)CC5)c3Cl)c2Cl)cnc1CN1CC2(CCC(=O)N2)C1 (single isomer, unassigned) [Compound C-3] | – | ≤ 10 nM | ≤ 10 nM
COc1nc(-c2cccc(-c3cccc(-c4cc5c(c(OC)n4)[C@H](N4CC6(CCC(=O)N6)C4)CC5)c3Cl)c2Cl)cnc1CN1CC2(CCC(=O)N2)C1 (single isomer, unassigned) [Compound C-4] | – | > 10000 nM | ≤ 10 nM
COc1nc(-c2cccc(-c3cccc(-c4cc5c(c(OC)n4)[C@@H](N4CC(O)C4)CC5)c3Cl)c2Cl)cnc1CN1CC2(CCC(=O)N2)C1 (single isomer, unassigned) [Compound C-5] | – | ≤ 10 nM | ≤ 10 nM
COc1nc(-c2cccc(-c3cccc(-c4cc5c(c(OC)n4)[C@H](N4CC(O)C4)CC5)c3Cl)c2Cl)cnc1CN1CC2(CCC(=O)N2)C1 (single isomer, unassigned) [Compound C-6] | – | 100 to 1000 nM | ≤ 10 nM
COc1nc(-c2cccc(-c3cccc(-c4cc5c(c(OC)n4)[C@@H](NC[C@@H]4CCC(=O)N4)CC5)c3Cl)c2Cl)cnc1CN1CC2(CCC(=O)N2)C1 [Compound C-1] | – | ≤ 10 nM | –
COc1nc(-c2cccc(-c3cccc(-c4cc5c(c(OCC(C)C)n4)C(NC[C@@H]4CCC(=O)N4)CC5)c3Cl)c2Cl)cnc1CN1CC2(CCC(=O)N2)C1 (stereo partly shown) [Compound C-13] | – | 10 to 100 nM | –
